Where two headings read alike, the source gives them in different places.
Test system: FD (familial dysautomonia) IKBKAP minigene, exon 20 inclusion, in HEK293T cells
Assay: Primary splicing assay (FD IKBKAP minigene, Firefly/Renilla luciferase reporter in HEK293T)
Type: cell-based, human
Details: for Emax / EC (maximum kinetin efficacy): Homo sapiens, HEK-293T; for EC (maximum kinetin efficacy): HEK293T, read-out: ECk (compound concentration at which the maximum kinetin efficacy (200 μM) is reached)
[1] = max efficacy in Primary Assay, Firefly/Renilla ratio, kinetin and DMSO as positive and negative controls, 24 hours of treatment, read-out: Emax (%)
[2] = max efficacy, value marked (RT-PCR), footnote a: Firefly inhibitor, read-out: Emax (%) (RT-PCR)
[3] = Firefly/Renilla ratio, 24 hours of treatment

| Structure (SMILES) | Emax [1] | EC (maximum kinetin efficacy) [3] | also measured |
| --- | --- | --- | --- |
| CN(C)c1nc(NCc2ccco2)c2nc[nH]c2n1 [(60)] | 13% |  |  |
| CC(C)(C)OC(=O)N1Cc2nc(Cl)nc(NCc3nccs3)c2C1 [(509)] | 40.8% |  |  |
| Fc1ccccc1CNc1nc(Cl)nc2[nH]ccc12 [(354)] | 57.5% |  |  |
| COc1cccc(Nc2nc(Cl)nc3[nH]cnc23)c1 [(383)] | 30.3% |  |  |
| Clc1nc(NCc2ccco2)c2ncn(Cc3cccnc3)c2n1 [(76)] | 69% |  |  |
| O[C@H]1C=C[C@H](n2ccc3c(NCc4ccco4)nc(Cl)nc32)C1 [(132)] |  |  | Emax [2]: 67.7% |
| Clc1nc(NCc2ccno2)c2cc[nH]c2n1 [(178)] | 76% |  |  |
| Clc1nc(NCc2ccco2)c2ncn(Cc3ccccn3)c2n1 [(79)] | 43% |  |  |
| Clc1nc(NCc2ccco2)c2c(CN3CCCC3)c[nH]c2n1 [(173)] | 30% |  |  |
| Clc1nc(NCc2ccco2)c2[nH]ccc2n1 [(57)] |  | 31.2 µM |  |
| Cc1nc2ncnc(NCc3ccco3)c2[nH]1 [(87)] | 46% |  |  |
| Nc1nc2c(NCc3ccco3)nc(Cl)nc2[nH]1 [(146)] | 154% | 9.41 µM |  |
| COc1nc2c(NCc3nccs3)nc(Cl)nc2n1CCO [(278)] | 141% | 6.37 µM |  |
| CNc1nc2c(NCc3ccncc3)nc(Cl)nc2[nH]1 [(244)] | 150% | 7.05 µM |  |
| CC(Nc1nc(Cl)nc2[nH]cnc12)c1ccncc1 (stereo not drawn) [(366)] | 19.2% |  |  |
| Clc1nc(NCc2ccncn2)c2nc[nH]c2n1 [(129)] | 169% | 5.6 µM |  |
| O=c1cc(CNc2nc(Cl)nc3[nH]cnc23)cc[nH]1 [(255)] | 42% |  |  |
| CC#CCOc1nc2c(NCc3ccco3)nc(Cl)nc2[nH]1 [(486)] | 150% | 2.57 µM |  |
| COc1nc2c(NCc3cnccn3)nc(Cl)nc2[nH]1 [(374)] | 34.2% |  |  |
| NC(=O)c1nc2c(NCc3ccncc3)nc(Cl)nc2[nH]1 [(242)] | 31% |  |  |
| Clc1cc(NCc2ccncc2)c2nc[nH]c2n1 [(251)] | 258% | 3.65 µM |  |
| COc1cccc(Nc2ncnc3[nH]cnc23)c1 [(49)] |  | 42.5 µM |  |
| c1cc(CNc2ncnc3[nH]cnc23)ccn1 [(404)] | 51% |  |  |
| FC(F)(F)COc1nc2c(NCc3cscn3)nc(Cl)nc2[nH]1 [(392)] | 134% | 1.9 µM |  |

| Structure (SMILES) | Emax [1] | EC (maximum kinetin efficacy) [3] | also measured |
| --- | --- | --- | --- |
| Cn1cnc2nc(Cl)nc(NCc3ccncn3)c21 [(316)] | 108% | 7.09 µM |  |
| Clc1cc(NCc2ccco2)n2ncnc2n1 [(284)] | 27% |  |  |
| Clc1nc2c(c(NCc3ccco3)n1)COC2 [(503)] | 27.2% |  |  |
| c1coc(CNc2ncnc3[nH]c(C4CC4)nc23)c1 [(96)] | 65% |  |  |
| CC(C)(C)OCCOc1nc2c(NCc3nccs3)nc(Cl)nc2[nH]1 [(482)] | 99.1% | 11.1 µM |  |
| c1ccc(-c2nc(NCc3ccco3)c3nc[nH]c3n2)cc1 [(38)] | 5% |  |  |
| Clc1nc(NCc2cnccn2)c2cc[nH]c2n1 [(353)] | 78% |  |  |
| CNC(=O)c1c[nH]c2nc(Cl)nc(NCc3ccco3)c12 [(172)] | 61% |  |  |
| Fc1cccc(CNc2ncnc3[nH]cnc23)c1 [(12)] |  |  | Emax (max efficacy in Primary Assay, value flagged footnote a: Firefly inhibitor, read-out: Emax (%)): 54% |
| OC1CN(c2nc3c(NCc4ccco4)nc(Cl)nc3[nH]2)C1 [(104)] | 246% | 12 µM |  |
| Clc1nc(NCc2ccco2)c2nc(OCc3ccccc3)[nH]c2n1 [(490)] | 176% | 0.62 µM |  |
| c1coc(CNc2ncnc3cc[nH]c23)c1 [(22)] | 49% |  |  |
| CC(C)(COc1nc2c(NCc3nccs3)nc(Cl)nc2[nH]1)OCc1ccccc1 [(400)] | 11.4% |  |  |
| CC(C)COc1nc2c(NCc3ccco3)nc(Cl)nc2[nH]1 [(477)] | 108% | 2.28 µM |  |
| NC(=O)c1cc2c(NCc3ccco3)nc(Cl)nc2[nH]1 [(188)] | 145% | 11.7 µM |  |
| COCCn1ccc2c(NCc3ccco3)nc(Cl)nc21 [(94)] |  |  | Emax [2]: 180%; ECk (RT-PCR) (determined by RT-PCR, footnote a Firefly inhibitor, footnote b Renilla interference): 10 to 31.6 µM |
| FC(F)COc1nc2c(NCc3ccncc3)nc(Cl)nc2[nH]1 [(382)] | 193% | 1.31 µM |  |
| FCCn1ccc2c(NCc3nccs3)nc(Cl)nc21 [(192)] | 210% | 7.13 µM |  |
| OCc1cc2c(NCc3ccco3)nc(Cl)nc2[nH]1 [(170)] | 92% | 49.5 µM |  |
| Fc1cccc(CCNc2ncnc3[nH]cnc23)c1 [(28)] | 98% | 123 µM |  |
| Clc1cc(NCc2ccncc2)n2ncnc2n1 [(283)] | 29% |  |  |
| Clc1nc(NCc2ccccn2)c2nc[nH]c2n1 [(356)] | 17% |  |  |
| Clc1nc(NCc2cc3ccccc3o2)c2cc[nH]c2n1 [(163)] | 35% |  |  |
| FC(F)COc1nc2c(NCc3ccco3)nc(Cl)nc2[nH]1 [(384)] | 152% | 1.08 µM |  |

| Structure (SMILES) | Emax [1] | EC (maximum kinetin efficacy) [3] | also measured |
| --- | --- | --- | --- |
| O=C1Cc2c(NCc3ccncc3)nc(Cl)nc2N1 [(257)] | 62% |  |  |
| Clc1nc(NCc2ccncc2)c2nc(C3CCC3)[nH]c2n1 [(234)] | 94% | 19.9 µM |  |
| OCCOc1nc2c(NCc3nccs3)nc(Cl)nc2[nH]1 [(310)] | 191% | 1.5 µM |  |
| C[C@@H](Nc1ncnc2[nH]cnc12)c1ccco1 [(411)] | 55% |  |  |
| CN(C)c1nc2c(NCc3ccco3)nc(Cl)nc2[nH]1 [(118)] | 112% | 10.5 µM |  |
| Clc1nc(NCc2ccncc2)c2nc(OCC3CCCC3)[nH]c2n1 [(334)] | 177% | 0.87 µM |  |
| COc1nc2c(NCc3ccncc3)nc(Cl)nc2n1CCO [(287)] | 106% | 7.56 µM |  |
| OCCCNc1nc2c(NCc3ccco3)nc(Cl)nc2[nH]1 [(225)] | 114% | 21.1 µM |  |
| CN(Cc1ccncc1)c1nc(Cl)nc2[nH]ccc12 [(369)] | 57.8% |  |  |
| Cc1cc2c(NCc3ccco3)nc(Cl)nc2n1CCO [(154)] | 151% | 22.2 µM |  |
| Fc1cccc(CNc2nc(Cl)nc3[nH]ccc23)n1 [(494)] | 14.1% |  |  |
| Clc1nc(NCc2nccs2)c2nc(OCC3CCC3)sc2n1 [(341)] | 155% | 4.16 µM |  |
| Clc1nc(NCc2ccco2)c2cc(C3CC3)[nH]c2n1 [(156)] | 73% | 15.8 µM |  |
| Clc1nc(NCc2cccs2)c2[nH]cnc2n1 [(456)] | 52.3% |  |  |
| COc1nc2c(N(C)Cc3nccs3)nc(Cl)nc2[nH]1 [(351)] | 22% |  |  |
| OCCNc1nc2c(NCc3ccco3)nc(Cl)nc2[nH]1 [(199)] | 22% |  |  |
| Clc1nc(NCc2nccs2)c2nc(OCCOc3ccccc3)[nH]c2n1 [(401)] | 41.2% |  |  |
| Cc1[nH]c2nc(Cl)nc(NCc3ccco3)c2c1Br [(143)] | 24% |  |  |
| Clc1cccc(CNc2ncnc3[nH]cnc23)c1 [(415)] | 10.9% |  |  |
| Cc1c[nH]c2nc(Cl)nc(NCc3ccncn3)c12 [(126)] | 155% | 4.73 µM |  |
| Clc1nc(NCc2ccco2)c2c(-c3ccncc3)c[nH]c2n1 [(89)] | 21% |  |  |
| c1coc(CNc2ncnc3[nH]ccc23)c1 [(3)] | 59% |  |  |
| OCCCOc1nc2c(NCc3nccs3)nc(Cl)nc2[nH]1 [(276)] | 188% | 1.13 µM |  |
| O[C@@H]1C=C[C@H](n2ccc3c(NCc4ccco4)nc(Cl)nc32)C1 [(139)] |  |  | Emax [2]: 52.2% |

| Structure (SMILES) | Emax [1] | EC (maximum kinetin efficacy) [3] | also measured |
| --- | --- | --- | --- |
| N#Cc1c[nH]c2nc(Cl)nc(NCc3ccncc3)c12 [(151)] | 73% |  |  |
| Clc1nc(NCc2nccs2)c2nc[nH]c2n1 [(131)] | 190% | 7 µM |  |
| Clc1nc(NCc2ccco2)c2nc(OC[C@@H]3CCOC3)[nH]c2n1 [(472)] | 151% | 1.16 µM |  |
| O=C(O)c1ccc(CNc2nc(Cl)nc3[nH]cc(F)c23)cc1 [(117)] | 23% |  |  |
| CC(C)Oc1nc2c(NCc3ccncc3)nc(Cl)nc2[nH]1 [(277)] | 197% | 0.46 µM |  |
| Cc1cc2c(NCc3ccncn3)nc(Cl)nc2[nH]1 [(136)] | 143% | 7.52 µM |  |
| c1nc(NCc2ccoc2)c2nc[nH]c2n1 [(465)] |  |  | Emax [2]: 26.3% |
| CCOc1nc2c(NCc3nccs3)nc(Cl)nc2[nH]1 [(260)] | 130% | 3.43 µM |  |
| Brc1nc(NCc2ccco2)c2nc[nH]c2n1 [(266)] | 106% | 8.52 µM |  |
| Clc1nc(NCc2ccncn2)c2cn[nH]c2n1 [(220)] | 153% | 8.62 µM |  |
| Clc1cc(NCc2nccs2)n2nccc2n1 [(325)] | 20% |  |  |
| Clc1nc(NCc2nccs2)c2nc(OCC3CCCC3)[nH]c2n1 [(332)] | 189% | 0.78 µM |  |
| FC(F)(F)COc1nc2c(NCc3ccncn3)nc(Cl)nc2[nH]1 [(331)] | 209% | 0.69 µM |  |
| CCCOc1nc2c(NCc3ccco3)nc(Cl)nc2[nH]1 [(292)] | 312% | 0.24 µM |  |
| Clc1nc(NCc2nccs2)c2cn[nH]c2n1 [(222)] | 146% | 8.99 µM |  |
| Clc1nc(NCc2ccncn2)c2c(Cl)c[nH]c2n1 [(210)] | 104% | 69.2 µM |  |
| Clc1cc(NCc2ccncn2)n2nccc2n1 [(330)] | 20% |  |  |
| Clc1cc(NCc2ccco2)n2ccnc2n1 [(288)] | 56% |  |  |
| Clc1cc(NCc2ccco2)c2nc[nH]c2n1 [(198)] | 125% | 5.01 µM |  |
| Cn1cnc2nc(Cl)nc(NCc3ccco3)c21 [(314)] | 198% | 2.31 µM |  |
| Clc1nc(NCc2nccs2)c2nc(OCc3ccccc3)[nH]c2n1 [(483)] | 138% | 1.26 µM |  |
